Measured values from ChEMBL document CHEMBL3396978, “Design, synthesis of new β-carboline derivatives and their selective anti-HIV-2 activity” (Bioorg Med Chem Lett, 2015).
Active and inactive are the calls of the source. The rule behind the calls is not given here.

How the values were obtained:
[1] = system: Human immunodeficiency virus 2; assay: Antiviral activity against HIV2 ROD infected in human MT4 cells assessed as protection against virus-induced cytotoxicity after 5 days by MTT assay; type: functional, organism-based; conditions: Human immunodeficiency virus 2, ISOLATE ROD, MT4, 120 h
[2] = system: Human immunodeficiency virus 1; assay: Antiviral activity against HIV1 3B infected infected in human MT4 cells assessed as protection against virus-induced cytotoxicity after 5 days by MTT assay; type: functional, organism-based; conditions: Human immunodeficiency virus 1, 3B, MT4, 120 h
[3] = system: HeLa; assay: Cytotoxicity against mock-infected human […] cells by MTT assay; type: functional
[4] = Selectivity index, ratio of CC50 for mock-infected human […] cells to EC50 for HIV2 ROD infected in human MT4 cells; type: toxicity, cell-based; conditions: read-out: Ratio CC50/EC50
[5] = system: Human immunodeficiency virus 2; assay: Antiviral activity against HIV2; type: functional, organism-based
[6] = system: Human immunodeficiency virus 1; assay: Antiviral activity against HIV1; type: functional, organism-based
[7] = system: Human immunodeficiency virus; assay: Antiviral activity against HIV; type: functional, organism-based; conditions: Human immunodeficiency virus 1
[8] = biological target: Reverse transcriptase (Human immunodeficiency virus 2) (UniProt Q06347); assay: Inhibition of HIV2 reverse transcriptase using poly(C).oligo(dG) template/primer after 30 mins at 200 ug/mL
Reverse transcriptase (Human immunodeficiency virus 2), sequence (Q06347 as listed by the source): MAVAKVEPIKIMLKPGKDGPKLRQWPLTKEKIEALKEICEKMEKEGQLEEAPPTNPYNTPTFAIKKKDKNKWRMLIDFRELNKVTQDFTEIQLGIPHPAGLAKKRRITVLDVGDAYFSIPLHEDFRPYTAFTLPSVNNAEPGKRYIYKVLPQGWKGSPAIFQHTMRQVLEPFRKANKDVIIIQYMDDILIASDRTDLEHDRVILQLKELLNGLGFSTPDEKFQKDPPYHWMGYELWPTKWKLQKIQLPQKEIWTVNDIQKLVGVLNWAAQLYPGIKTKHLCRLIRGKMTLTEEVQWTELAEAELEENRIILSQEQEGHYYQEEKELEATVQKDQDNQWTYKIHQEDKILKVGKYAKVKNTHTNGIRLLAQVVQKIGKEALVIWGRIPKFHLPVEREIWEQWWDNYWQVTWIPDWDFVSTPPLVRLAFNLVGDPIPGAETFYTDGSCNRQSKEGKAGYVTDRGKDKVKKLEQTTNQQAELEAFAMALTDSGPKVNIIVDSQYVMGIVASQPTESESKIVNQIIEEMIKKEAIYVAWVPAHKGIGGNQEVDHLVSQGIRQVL

[9] = biological target: Reverse transcriptase (Human immunodeficiency virus 2) (UniProt Q06347); assay: Inhibition of HIV2 reverse transcriptase using poly(A).oligo(dT) template/primer after 30 mins at 200 ug/mL

| Compound | EC50 [1] | EC50 [2] | CC50 [3] | selectivity ratio [4] | EC50 [5] | EC50 [6] | EC50 [7] | inhibition [8] | inhibition [9] |
| --- | --- | --- | --- | --- | --- | --- | --- | --- | --- |
| COc1ccc(N2CCN(C(=O)c3cc4c5ccccc5n(C)c4c(-c4ccccc4)n3)CC2)cc1 | > 210 µM | > 210 µM | > 210 µM |  |  |  |  |  |  |
| Cc1ccccc1N1CCN(C(=O)c2cc3c4ccccc4n(C)c3c(-c3ccccc3)n2)CC1 | > 16.9 µM | > 16.9 µM | 16.9 µM | < 1 |  |  |  |  |  |
| NC(=O)c1cc2c([nH]c3ccccc32)c(-c2ccc(CO)o2)n1 |  |  |  |  | 0.57 µM | 0.38 µM |  |  |  |
| O=C(O)c1cc2c([nH]c3ccccc32)c(-c2ccc(CO)o2)n1 [FLAZINE] |  |  |  |  |  |  | 2.36 µM |  |  |
| COc1ccccc1N1CCN(C(=O)c2cc3c4ccccc4n(C)c3c(-c3ccccc3)n2)CC1 | 3.2 µM | > 25.3 µM | 25.3 µM | 8 |  |  |  | inactive | inactive |
| Cc1ccnc2c1NC(=O)c1cccnc1N2C1CC1 [NEVIRAPINE] | > 4 µM | 0.027 µM | > 4 µM |  |  |  |  |  |  |
| Cn1c2ccccc2c2cc(C(=O)N3CCN(c4ccccn4)CC3)nc(-c3ccccc3)c21 | > 19.2 µM | > 19.2 µM | 19.2 µM | < 1 |  |  |  |  |  |
| Cc1ccc(N2CCN(C(=O)c3cc4c5ccccc5n(C)c4c(-c4ccccc4)n3)CC2)cc1 | 3.3 µM | > 29.6 µM | 29.6 µM | 9 |  |  |  | inactive | inactive |
| Cn1c2ccccc2c2cc(C(=O)N3CCN(c4ccc([N+](=O)[O-])cc4)CC3)nc(-c3ccccc3)c21 | > 204 µM | > 204 µM | > 204 µM |  |  |  |  |  |  |
| Cc1cn([C@H]2C[C@H](N=[N+]=[N-])[C@@H](CO)O2)c(=O)[nH]c1=O [ZIDOVUDINE] | 0.0016 µM | 0.0019 µM | > 25 µM | > 12500 |  |  |  |  |  |
| Cn1c2ccccc2c2cc(C(=O)N3CCN(c4ccccc4F)CC3)nc(-c3ccccc3)c21 | 5.4 µM | > 50.6 µM | 50.6 µM | 9 |  |  |  | inactive | inactive |
| Cn1c2ccccc2c2cc(C(=O)N3CCN(c4cccc(Cl)c4Cl)CC3)nc(-c3ccccc3)c21 | > 63.9 µM | > 63.9 µM | 63.9 µM | < 1 |  |  |  |  |  |
| Cn1c2ccccc2c2cc(C(=O)N3CCN(c4ccc(Cl)cc4)CC3)nc(-c3ccccc3)c21 | > 208 µM | > 208 µM | > 208 µM |  |  |  |  |  |  |
| Cn1c2ccccc2c2cc(C(=O)N3CCN(c4ccccc4)CC3)nc(-c3ccccc3)c21 | 29.4 µM | > 224 µM | > 224 µM | > 8 |  |  |  | inactive | inactive |
| Cn1c2ccccc2c2cc(C(=O)N3CCN(c4cccc(Cl)c4)CC3)nc(-c3ccccc3)c21 | > 111 µM | > 111 µM | 111 µM | < 1 |  |  |  |  |  |
| COc1cccc(N2CCN(C(=O)c3cc4c5ccccc5n(C)c4c(-c4ccccc4)n3)CC2)c1 | > 134 µM | > 134 µM | 134 µM | < 1 |  |  |  |  |  |
| Nc1ccn([C@@H]2CS[C@H](CO)O2)c(=O)n1 [LAMIVUDINE] | 3.56 µM | 0.89 µM | > 20 µM | > 5.6 |  |  |  |  |  |
| Cn1c2ccccc2c2cc(C(=O)N3CCN(c4ccc(F)cc4)CC3)nc(-c3ccccc3)c21 | 2.6 µM | > 189 µM | > 189 µM | > 72 |  |  |  | inactive | inactive |
| Cn1c2ccccc2c2cc(C(=O)N3CCN(Cc4ccccc4)CC3)nc(-c3ccccc3)c21 | > 21.7 µM | > 21.7 µM | 21.7 µM | < 1 |  |  |  |  |  |
| O=c1[nH]cnc2c1ncn2[C@H]1CC[C@@H](CO)O1 [DIDANOSINE] | 2.27 µM | 2.56 µM | > 50 µM | > 21.7 |  |  |  |  |  |
| Cn1c2ccccc2c2cc(C(=O)N3CCN(c4ccncc4)CC3)nc(-c3ccccc3)c21 | > 4.02 µM | > 4.02 µM | 4.02 µM | < 1 |  |  |  |  |  |
| Cn1c2ccccc2c2cc(C(=O)N3CCN(c4ccccc4Cl)CC3)nc(-c3ccccc3)c21 | > 23.6 µM | > 23.6 µM | 23.6 µM | < 1 |  |  |  |  |  |
